We go through two compounds from US11213527B2, “Inhibitory effect of low molecular weight compound on cancer and fibrosis” (NATIONAL UNIVERSITY CORPORATION TOTTORI UNIVERSITY, priority 2014, dated 2022).

One test concerns liver fibrosis. As to the kind of experiment: Liver disease model mice (carbon tetrachloride-induced liver fibrosis). It counts as in vivo, C57BL/6 male mice. As to conditions: glycyrrhizin 150 mg/kg, IC-2 10.6 or 21.2 mg/kg intraperitoneally 3 times a week for 4 weeks, vs vehicle. The method, then:
First, 7-week-old C57BL/6 male mice (Japan SLC, Shizuoka, Japan) were subject to 1-week preparatory rearing. Among them, healthy mice were used. The mice were housed in an animal cage at a room temperature of 22±1° C. and a humidity of 50±5% throughout the preparatory rearing and experimental period and were given ad libitum access to food and water.
A microsyringe (ITO CORPORATION, Shizuoka, Japan) was used to intraperitoneally administer carbon tetrachloride (CCl4: Wako Pure Chemical Industries, Ltd., Osaka, Japan) at 0.2 ml/kg, 3 times a week, for 4, 6, or 8 weeks. Carbon tetrachloride was dissolved into cone oil (Wako Pure Chemical Industries, Ltd.) at a concentration of 10%. The resulting solution was used. After this carbon tetrachloride solution was administered for 4 weeks, the mice were divided into a vehicle administration group, a glycyrrhizin administration group, an ICG-001 administration group, and an IC-2 administration group. Then, a microsyringe was used to intraperitoneally administer, 3 times a week for 4 weeks, carbon tetrachloride and a drug solution prepared in accordance with the following process. Note that the carbon tetrachloride and the drug solution were alternately administered with one-day interval.
Glycyrrhizin (TOKYO CHEMICAL INDUSTRY CO., LTD., Tokyo, Japan) was dissolved in physiological saline. The solution was prepared at a concentration of 30 mg/ml while the pH was adjusted to 7.0 with 4 M NaOH liquid. IC-2 and ICG-001 (AdooQ BioScience, California, USA) were each dissolved in a WellSolve (Celeste Corporation, Tokyo, Japan) at a concentration of 40 mg/ml and 10 mg/ml, respectively. Next, the mixture was heated for 10 min in a hot water bath at 60° C. and was then completely dissolved. A 9-fold volume of physiological saline was added to the WellSolve solution in which the above drugs had each been dissolved. […] Note that an IC-2 dosage was determined on the basis of an effective concentration in vitro. […]

In another test the test system is cancer stem cells. As to conditions: Fbxw7-deficient model mice; cited from earlier work.

SMILES strings stand for the structures.

`CC1(C)[C@@H](O[C@H]2O[C@H](C(=O)O)[C@@H](O)[C@H](O)[C@H]2O[C@@H]2O[C@H](C(=O)O)[C@@H](O)[C@H](O)[C@H]2O)CC[C@]2(C)[C@H]3C(=O)C=C4[C@@H]5C[C@@](C)(C(=O)O)CC[C@]5(C)CC[C@@]4(C)[C@]3(C)CC[C@@H]12` [glycyrrhizin, Glycyrrhizin, reference compound]: the content of hydroxyproline entry in the test with liver fibrosis is reported as “reduced content of hydroxyproline”. As for `Cc1ccc(NC(=O)c2ccc(CN3CCN(C)CC3)cc2)cc1Nc1nccc(-c2cccnc2)n1` [imatinib], the “killing of cancer stem cells” value in the test on cancer stem cells is on record as “cancer stem cells were killed”.
